According to patent US11746116B2, “Antibiotic resistance breakers” (KING'S COLLEGE LONDON, priority 2017, dated 2023):
≈ marks a conversion by molar mass, not a printed value. Like-named read-outs stand apart in the source and are kept apart here.

Columns and labels:
Test in all cases: MIC, microdilution broth method
MSSA9144 = assay type: cell-based, Staphylococcus aureus; conditions: for MIC, MSSA9144: ESKAPE panel, Gram-positive
M6 = assay type: cell-based; conditions: for MIC, M6: ESKAPE panel, Gram-negative
Ab17978 = assay type: cell-based; conditions: for MIC, Ab17978: ESKAPE panel, Gram-negative
VRE12204 = assay type: cell-based, Enterococcus faecium; conditions: in µg/mL; for MIC, VRE12204: ESKAPE panel, Gram-positive; for MIC: VRE12204
KP13368 = assay type: cell-based; conditions: for MIC, KP13368: ESKAPE panel, Gram-negative
VRE12201 = assay type: cell-based, Enterococcus faecalis; conditions: for MIC, VRE12201: ESKAPE panel, Gram-positive
EMRSA16 = assay type: cell-based, Staphylococcus aureus
AYE = assay type: cell-based, Acinetobacter baumannii; conditions: for MIC, AYE: ESKAPE panel, Gram-negative
EMRSA15 = assay type: cell-based, Staphylococcus aureus
EC12923 = assay type: cell-based; conditions: for MIC, EC12923: ESKAPE panel, Gram-negative
PA01 = assay type: cell-based, Pseudomonas aeruginosa; conditions: for MIC, PA01: ESKAPE panel, Gram-negative
VSE775 = assay type: cell-based, Enterococcus faecalis; set-up: MIC, VSE775: unit not given beside the values; conditions: for MIC, VSE775: ESKAPE panel, Gram-positive
PA13437 = assay type: cell-based; conditions: for MIC, PA13437: ESKAPE panel, Gram-negative; for MIC: PA13437
[1] = ESKAPE panel, Gram-positive, in µg/mL
[2] = Ab17978, Normal (no PMBN), in µg/mL
[3] = KP13368, Normal (no PMBN), in µg/mL
[4] = AYE, Normal (no PMBN), in µg/mL
[5] = PA01, Normal (no PMBN), in µg/mL

| Structure (SMILES) | MIC, MSSA9144 (MSSA9144; in µg/mL) | MIC, M6 (M6; in µg/mL) | MIC, Ab17978 (Ab17978; in µg/mL) | MIC, VRE12204 (VRE12204) | MIC, KP13368 (KP13368) | MIC, VRE12201 (VRE12201; in µg/mL) | MIC, EMRSA16 (EMRSA16; [1]) | MIC, AYE (AYE; in µg/mL) | MIC, EMRSA15 (EMRSA15; [1]) | MIC, EC12923 (EC12923; in µg/mL) | MIC, PA01 (PA01; in µg/mL) | MIC, VSE775 (VSE775) | MIC, PA13437 (PA13437) | MIC (MSSA9144; MSSA9144, in µg/mL) | MIC (M6; M6, Normal (no PMBN), in µg/mL) | MIC (Ab17978; [2]) | MIC (VRE12204) | MIC (KP13368; [3]) | MIC (VRE12201; VRE12201, in µg/mL) | MIC (EMRSA16; EMRSA16, in µg/mL) | further results |
| --- | --- | --- | --- | --- | --- | --- | --- | --- | --- | --- | --- | --- | --- | --- | --- | --- | --- | --- | --- | --- | --- |
| C[C@H]1COc2c(N3CC[C@@H](Nc4cnccn4)C3)c(F)cc3c(=O)c(C(=O)O)cn1c23 [KSN-BL1, (S)-9-fluoro-3-methyl-7-oxo-10-((R)-3-(pyrazin-2-ylamino)pyrrolidin-1-yl)-2,3-dihydro-7H-[1,4]oxazino[2,3,4-ij]quinoline-6-carboxylic acid] | ≤0.125 | 0.5 | 0.25 | 0.5 | 8 µg/mL (≈ 18.8 µM) | ≤0.125 | 1 | 8 | 1 | 0.25-0.5 | 4 | ≤0.125 |  |  |  |  |  |  |  |  | MIC (MSSA9144; Staphylococcus aureus (MSSA9144), Gram-Positive, read-out: MIC): ≤ 0.125 µg/mL; MIC (M6; Klebsiella pneumoniae (M6), Gram-Negative, read-out: MIC): 0 to 5 µg/mL; MIC (Ab17978; Acinetobacter baumannii (AB17978), Gram-Negative, read-out: MIC): 0.25 µg/mL (≈ 0.588 µM); MIC (KP13368; Klebsiella pneumoniae (KP13368), Gram-Negative, read-out: MIC): 8 µg/mL (≈ 18.8 µM); MIC (VRE12201; Enterococcus faecalis, Enterococcus (VRE12201), Gram-Positive, read-out: MIC): ≤ 0.125 µg/mL; MIC, EMRSA16 (EMRSA16; EMRSA16 (Table 16, role of the terminal pyrimidine ring), in µg/mL): 1; MIC (EMRSA16; Staphylococcus aureus (EMRSA16), Gram-Positive (Table 14), read-out: MIC): 1 µg/mL (≈ 2.35 µM); MIC (AYE; Acinetobacter baumannii (AYE), Gram-Negative, read-out: MIC): 8 µg/mL (≈ 18.8 µM); MIC, EMRSA15 (EMRSA15; EMRSA15 (Table 16, role of the terminal pyrimidine ring), in µg/mL): 1; MIC (EMRSA15; Staphylococcus aureus, Staphylococcus aureus (EMRSA15), Gram-Positive (Table 14), read-out: MIC): 1 µg/mL (≈ 2.35 µM); MIC (EC12923; Escherichia coli (EC12923), Gram-Negative, read-out: MIC): 0.25 µg/mL (≈ 0.588 µM); MIC (PA01; Pseudomonas aeruginosa (PA01), Gram-Negative, read-out: MIC): 4 µg/mL (≈ 9.4 µM); MIC (VSE775; Enterococcus faecalis, Enterococcus (VRE775), Gram-Positive, read-out: MIC): ≤ 0.125 µg/mL |
| C[C@H]1COc2c(N3CC[C@H](Nc4ncccn4)C3)c(F)cc3c(=O)c(C(=O)O)cn1c23 [KSN-L19] | 0.25 | 4 | 4 | 4 | > 32 µg/mL | 1 | 8 | >32 | 8 | 4 | >32 | 2 | > 32 µg/mL |  |  |  |  |  |  |  |  |
| C[C@H]1COc2c(N3CC[C@H](Nc4cc(NC5CC5)ncn4)C3)c(F)cc3c(=O)c(C(=O)O)cn1c23 [KSN-L21, (S)-10-((S)-3-((6-(cyclopropylamino)pyrimidin-4-yl)amino)pyrrolidin-1-yl)-9-fluoro-3-methyl-7-oxo-2,3-dihydro-7H-[1,4]oxazino[2,3,4-ij]quinoline-6-carboxylic acid] | 0.5 | 16 | 2 | 16 | > 32 µg/mL | 1 | >32 | >32 | 32 | 0.5 | >32 | 4 | > 32 µg/mL |  |  |  |  |  |  |  |  |
| C[C@H]1COc2c(N3CC[C@@H](N)C3)c(F)cc3c(=O)c(C(=O)O)cn1c23 [KSN-L44-D, (S)-10-((R)-3-aminopyrrolidin-1-yl)-9-fluoro-3-methyl-7-oxo-2,3-dihydro-7H-[1,4]oxazino[2,3,4-ij]quinoline-6-carboxylic acid] | 0.25 | ≤0.125 | 2 | 1 | 4 µg/mL (≈ 11.5 µM) | 0.5-1 | 32 |  | 32 | ≤0.125 | 0.25-0.5 | 1-4 | 32 µg/mL (≈ 92.1 µM) |  |  |  |  |  |  |  |  |
| C[C@H]1COc2c(N3CC[C@H](Nc4ncc(N)cn4)C3)c(F)cc3c(=O)c(C(=O)O)cn1c23 [KSN-L62, (S)-10-((S)-3-((5-aminopyrimidin-2-yl)amino)pyrrolidin-1-yl)-9-fluoro-3-methyl-7-oxo-2,3-dihydro-7H-[1,4]oxazino[2,3,4-ij]quinoline-6-carboxylic acid] | ≤0.125 | 1 | 0.25 | 1 | 16 µg/mL (≈ 36.3 µM) | ≤0.125 | 4 | 4 | 1 | 1 | 8 | ≤0.125 |  |  |  |  |  |  |  |  |  |
| CCn1cc(C(=O)O)c(=O)c2cc(F)c(N3CCN(Cc4cc(=O)[nH]c5ccccc45)CC3)cc21 [ML-77-059] |  |  |  |  |  |  |  |  |  |  |  |  |  | 16-32 | 16 | 32 | >32 | >32 | >32 | >32 | MIC (AYE; [4]): >32; MIC (PA13437; Normal (no PMBN)): > 32 µg/mL; MIC (EMRSA15; EMRSA15, in µg/mL): >32; MIC (PA01; [5]): >32; MIC (VSE775; VSE775, in µg/mL): >32 |
| C[C@H]1COc2c(N3CCN(c4ccncn4)CC3)c(F)cc3c(=O)c(C(=O)O)cn1c23 [ML-83-001, (S)-9-fluoro-3-methyl-7-oxo-10-(4-(pyrimidin-4-yl)piperazin-1-yl)-2,3-dihydro-7H-[1,4]oxazino[2,3,4-ij]quinoline-6-carboxylic acid] |  |  |  |  |  |  |  |  |  |  |  |  |  | 0.06 | 8 | 4 | 2 | 64 | 0.25 | 4 | MIC (M6; M6, +PMBN, in µg/mL): 0.5; MIC (Ab17978; Ab17978, +PMBN, in µg/mL): 1; MIC (KP13368; KP13368, +PMBN, in µg/mL): 4; MIC (AYE; AYE, +PMBN, in µg/mL): 64; MIC (PA13437; +PMBN): 32 µg/mL (≈ 75.2 µM); MIC (EMRSA15; EMRSA15, in µg/mL): 4; MIC (PA01; PA01, +PMBN, in µg/mL): 1; MIC (PA01; [5]): 32; MIC (VSE775; VSE775, in µg/mL): 0.25 |
| C[C@H]1COc2c(N3CCCN(c4cnccn4)CC3)c(F)cc3c(=O)c(C(=O)O)cn1c23 [ML-83-041 (5.16), (S)-9-fluoro-3-methyl-7-oxo-10-(4-(pyrazin-2-yl)-1,4-diazepan-1-yl)-2,3-dihydro-7H-[1,4]oxazino[2,3,4-ij]quinoline-6-carboxylic acid] |  |  |  |  |  |  |  |  |  |  |  |  |  | ≤0.125 | 2 | 1 | 4 | 16-32 | 0.5-1 | 8 | MIC (AYE; [4]): 64-128; MIC (EMRSA15; EMRSA15, in µg/mL): 4-8; MIC (EC12923; EC12923, in µg/mL): 1-2; MIC (PA01; [5]): 16-32; MIC (VSE775; VSE775, in µg/mL): 1 |
